Like-named read-outs stand apart in the source and are kept apart here.
Tests used:
[1] = Relaxivity determination (r1, r2) on Bruker minispec mq60; assay type: physicochemical; details: PBS, 60 MHz, 40°C
Experimental: A stock solution having a concentration of 1 mM of the CA of interest was prepared in phosphate-buffered saline (PBS), and the iron concentration was verified by elemental analysis. Separate 0.75 mM, 0.50 mM, and 0.25 mM samples were prepared from the stock by dilution in PBS, and T1 and T2 relaxations times were recorded in triplicate for each sample on a Bruker minispec mq60 instrument (60 MHz, 40°C). The relaxivities (r1 and r2) were obtained as the gradient of 1/Tx (x = 1, 2) plotted against Fe chelate concentration following linear least squares regression analysis.

bovine serum albumin = bovine serum albumin (Bos taurus, UniProt P02769); assay: Serum protein binding assay (ultrafiltration, UV-Vis); assay type: in vitro ADME; details: bovine serum albumin 8 wt.% in PBS, 1 hour at room temperature, 30 kDa filter
Experimental: A 5 mM stock solution of the iron chelate complex under investigation was prepared in PBS, and the UV/visible spectrum of the solution was acquired to determine the wavelength of the absorbance maximum (λmax). An aliquot of the stock solution (500 μL) was added to a PBS solution (2 mL) containing bovine serum albumin (8 wt.%). A control sample was prepared by diluting a second aliquot of the stock solution (500 μL) with PBS (2 mL). The samples were vortexed briefly and then allowed to stand for 1 hour at room temperature. At the stipulated time, the resulting solutions were transferred to Amicon Ultra filters (4 mL, MWCO = 30 kDa). The solutions were centrifuged (3000 rcf, 15 min), and the permeate was taken directly for UV-Vis measurement. The wavelength and intensity of λmax in the visible region for the solution were recorded. The relative amount of free and protein-bound agent was calculated from the λmax intensity ratio of the assay to control samples.

[2] = Ascorbic acid oxidation assay (redox stability); details: iron chelate 20 μM (30 mol%), ascorbic acid 67 μM in PBS, 45 minutes, air oxidation
Experimental: The UV-Vis spectrum of an ascorbic acid solution (67 μM and 12 μg/mL) in PBS (3 mL) was recorded. The absorbance intensity at λmax = 265 nm was observed. An aliquot (30 μL) of the iron chelate of ethylenediaminetetraacetic acid (Fe-EDTA) in PBS (2 mM, 0.7 mg/mL) was added to afford a catalytic quantity of Fe-EDTA (20 μM, 30 mol%) with respect to ascorbic acid. The absorbance intensity (λmax = 265 nm) was recorded at intervals of 1 minute for a period of 45 minutes and the data normalized to the t0 absorbance. The experiment was then repeated identically using a solution of the iron chelate complex under investigation (20 μM, 30 mol%), and the results were plotted as a function of the percent initial ascorbic acid signal versus elapsed time (min).

[3] = design: method as in PMID 16230904; details: in water at 1.5 T; cited from earlier work
[4] = cited from earlier work

Sequence of bovine serum albumin (P02769 25-607): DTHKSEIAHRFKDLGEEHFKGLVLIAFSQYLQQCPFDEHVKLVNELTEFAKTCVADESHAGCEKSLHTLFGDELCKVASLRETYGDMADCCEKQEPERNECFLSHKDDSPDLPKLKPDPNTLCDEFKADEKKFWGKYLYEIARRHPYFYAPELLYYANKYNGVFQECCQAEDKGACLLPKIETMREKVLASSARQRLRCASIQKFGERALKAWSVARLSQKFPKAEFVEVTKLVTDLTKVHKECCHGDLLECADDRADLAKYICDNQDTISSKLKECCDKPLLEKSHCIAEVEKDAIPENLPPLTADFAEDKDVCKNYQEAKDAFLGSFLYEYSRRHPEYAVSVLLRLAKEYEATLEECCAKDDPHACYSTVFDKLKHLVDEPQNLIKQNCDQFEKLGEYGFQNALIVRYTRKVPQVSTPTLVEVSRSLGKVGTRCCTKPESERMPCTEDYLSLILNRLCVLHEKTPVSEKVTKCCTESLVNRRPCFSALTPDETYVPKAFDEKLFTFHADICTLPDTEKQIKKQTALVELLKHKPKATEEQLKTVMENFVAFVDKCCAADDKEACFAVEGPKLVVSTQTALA

Row | r1 [1] [mM⁻¹ s⁻¹] | Protein binding (bovine serum albumin) [%] | SMILES | pseudo-first-rate time constant for ascorbic acid consumption, relative to Fe-EDTA [2] [%] | r1 [3] [mM⁻¹ s⁻¹] | log K (Fe[III] binding) [4]
1 | 0.9 | 20 | O=P1(O)CN2CCN3Cc4cccc(CO)c4[O][Fe]([O]c4c(CO)cccc4C2)([O]1)[O]P(=O)(O)C3 [Fe-4] |  |  | 
2 | 1.3 | 49 | O=P1(O)CN2CCN3Cc4ccccc4[O][Fe]([O]c4ccccc4C2)([O]1)[O]P(=O)(O)C3 [Fe-3] | < 0.5 |  | 
3 | 0.9 |  | O=C1CN2CCN3CC(=O)[O][Fe]([O]1)([O]c1ccc(S(=O)(=O)O)cc1C2)[O]c1ccc(S(=O)(=O)O)cc1C3 [Fe-2] | < 0.5 |  | 
4 | 0.49 | 33 | O=C1CN2CCN3CC(=O)[O][Fe]([O]1)([O]c1ccccc1C2)[O]c1ccccc1C3 [Fe-1] |  |  | 
5 |  |  | CNC[C@H](O)[C@@H](O)[C@H](O)[C@H](O)CO.CNC[C@H](O)[C@@H](O)[C@H](O)[C@H](O)CO.O=C([O-])CN(CCN(CC(=O)[O-])CC(=O)O)CCN(CC(=O)[O-])CC(=O)O.[Gd+3] [Gd-1, Gadopentetate dimeglumine] |  | 3.3 | 
6 |  |  | O=C(O)CN(CCN(CC(=O)O)Cc1ccccc1O)Cc1ccccc1O [HBED, N,N′-bis(2-hydroxyphenyl)ethylenediamine-N,N′-diacetic acid] |  |  | 39.7

From PMC6961518, “Fe-HBED Analogs: A Promising Class of Iron-Chelate Contrast Agents for Magnetic Resonance Imaging” (Contrast Media & Molecular Imaging, 2019)
